In US12156871B2, “Substituted azacycles as muscarinic M1 receptor positive allosteric modulators” (SUVEN LIFE SCIENCES LIMITED, priority 2017, dated 2024):

What was measured:
[1] = biological target: T1, human Muscarinic M1 receptor (Homo sapiens, UniProt P11229); test: Allosteric potency EC50 for muscarinic M1 receptor, CHO pCRE-Luc reporter cell assay; format: cell-based; conditions: in presence of EC20 of acetylcholine; CHO cells, luciferase reporter, 4 h
T1 sequence (P11229 1-460): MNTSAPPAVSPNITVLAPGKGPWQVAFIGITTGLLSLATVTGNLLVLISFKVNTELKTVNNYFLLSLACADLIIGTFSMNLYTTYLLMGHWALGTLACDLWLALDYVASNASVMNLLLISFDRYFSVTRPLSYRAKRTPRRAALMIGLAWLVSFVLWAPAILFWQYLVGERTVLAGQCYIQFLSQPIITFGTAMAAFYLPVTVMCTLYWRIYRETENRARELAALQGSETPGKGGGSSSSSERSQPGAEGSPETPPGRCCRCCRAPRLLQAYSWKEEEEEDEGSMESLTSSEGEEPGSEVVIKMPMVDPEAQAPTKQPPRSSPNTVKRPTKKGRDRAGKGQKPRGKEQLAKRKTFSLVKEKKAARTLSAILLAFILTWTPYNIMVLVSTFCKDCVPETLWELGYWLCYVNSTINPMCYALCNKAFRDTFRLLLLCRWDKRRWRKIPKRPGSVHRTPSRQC
Procedure: A stable CHO cell line expressing recombinant human Muscarinic M1 receptor and pCRE-Luc reporter system was used for cell-based assay. The assay offers a non-radioactive based approach to determine binding of a compound to GPCRs. In this specific assay, the level of intracellular cyclic AMP which is modulated by activation or inhibition of the receptor is measured. The recombinant cells harbor luciferase reporter gene under the control of cAMP response element.
The above cells were grown in 96 well clear bottom white plates in Hams F12 medium containing 10% fetal bovine serum (FBS). Prior to the addition of compounds or standard agonist, cells were serum starved overnight. Increasing concentrations of test compounds were added along with EC20 of acetylcholine in OptiMEM medium to the cells. The incubation was continued at 37° C. in CO2 incubator for 4 h. Medium was removed and cells were washed with phosphate buffered saline. The cells were lysed and luciferase activity was measured in a Luminometer. Luminescence units were plotted against the compound concentrations using Graphpad software. EC50 values of the compounds were defined as the concentration required in stimulating the luciferase activity by 50% in presence of EC20 of acetylcholine.

[2] = Protein binding assay (HT dialysis), dog liver microsomes; format: in vitro ADME; conditions: pH 7.4, Dog liver microsomes 0.5 mg/mL, Mean ± SEM, n = 3, read-out: Fu Microsomes (converted)
Procedure: Unbound fractions of test compounds in plasma, brain homogenate and liver microsomes were determined using high-throughput dialysis (HT dialysis). Briefly, dialysis membranes were soaked in deionized water for 20 minutes and then in deionized water with 30% ethanol for 15 minutes and finally in phosphate buffer until use. Membranes were rinsed in phosphate buffer before assembling. The membranes were layered between teflon bars of dialysis assembly. Stock solutions of test compound/comparative compound were prepared at 10 mM in DMSO, diluted to 1 mM in acetonitrile and further diluted to 100 μM in mixture of water and acetonitrile (1:1 v/v). Human plasma (pool of 3) was prepared from human blood (3 donors) by centrifuging at 4000 rpm for 10 min at 4° C. Rat and dog blood were obtained on the day of the study and centrifuged to obtain plasma. Rat brains were isolated, cleaned and homogenized with 2 volumes of buffer (3 fold dilution). Liver microsomes were prepared at 0.5 mg/mL in phosphate buffer (100 mM, pH 7.4). The dialysate chambers were loaded with 150 μL of 100 mM phosphate buffer (pH 7.4) in triplicates. The matrix chambers were loaded with 150 μL of the plasma or brain homogenate or microsomal suspension spiked with test compound/comparative compound at a final concentration of 1 μM. 50 μL of the sample was removed from both the chambers at 0 h. The plate was sealed and incubated at 37° C. for 6 h at 100 rpm. After 6 h, 50 μL of the sample was removed from both the chambers. Equal volumes of buffer or human plasma/microsomal suspension were added to the plasma/microsomal and buffer samples respectively to create identical sample matrices for analysis. The samples were precipitated with 150 μL of acetonitrile containing fluoxetine as an internal standard. All the samples were centrifuged at 10000 rpm for 10 minutes at 4° C.

[3] = Object recognition task model; format: in vivo, Male Wistar rats; conditions: rat, 3 mg/kg, p.o.; for Exploration time mean ± S.E.M, Familiar object / Exploration time mean ± S.E.M, Novel object: choice trial 24 h after T1
Procedure: The cognition enhancing properties of compounds of this invention were estimated by using this model.
Male Wistar rats (8-10 weeks old) were used as experimental animals. Four animals were housed in each cage. Animals were kept on 20% food deprivation from a day prior to experimentation. Water was provided ad libitum throughout the experiment. Animals were maintained on a 12 h light/dark cycle in temperature and humidity controlled room. The experiment was carried out in an circular made up of acrylic. Rats were habituated to individual arenas for up to 1 h in the absence of any objects on day 1.
One group of 12 rats received vehicle and another set of animals received compound of the formula (I), before the familiar (T1) and choice (T2) trials. During the familiarization phase, (T1), the rats were placed individually in the arena for 3 minutes, in which two identical objects (a1 and a2) were positioned 10 cm from the wall. 24 h after T1, trial for long-term memory test was performed. The same rats were placed in the same arena as they were placed in T1 trial. During the choice phase (T2) rats were allowed to explore the arena for 3 minutes in presence of a copy of familiar object (a3) and one novel object (b). During the T1 and T2 trial, explorations of each object (defined as sniffing, licking, chewing or having moving vibrissae whilst directing the nose towards the object at a distance of less than 1 cm) were recorded using stopwatch. • T1 is the total time spent exploring the familiar objects (a1+a2). • T2 is the total time spent exploring the familiar object and novel object (a3+b).
The object recognition test was performed as described by Ennaceur, A., Delacour, J., 1988, A new one-trial test for neurobiological studies of memory in rats—Behavioural data, Behav. Brain Res., 31, 47-59.

Row | EC50 [1] [nM] | fraction unbound at 6 h, 1 μM [2] | SMILES | Inference [3] | Exploration time mean ± S.E.M, Familiar object [3] [s] | Exploration time mean ± S.E.M, Novel object [3] [s]
1 | 954 | 0.906 | COc1ccc(Cc2cc3c(nc2C)CN([C@H]2CCCC[C@@H]2O)C3=O)cc1 [Example 6, 6-(1S,2S-2-Hydroxycyclohexyl)-2-methyl-3-(4-methoxybenzyl)-6,7-dihydropyrrolo[3,4-b]pyridin-5-one] | Active | 7.27 ± 1.31 | 15.9 ± 2.47
2 | 2280 | 0.843 | COc1cccc(Cc2cc3c(nc2C)CN([C@H]2CCCC[C@@H]2O)C3=O)c1 [Example 38, 6-(1S,2S-2-Hydroxycyclohexyl)-2-methyl-3-(3-methoxybenzyl)-6,7-dihydropyrrolo[3,4-b]pyridin-5-one] | Active | 10.12 ± 2.12 | 19.89 ± 3.32
